Source: patent US5420276A, “Analogs of oxetanyl purines and pyrimidines” (Abbott Laboratories, priority 1993, dated 1995)
In brackets after ≈: the same amount, converted by molar mass.

Experiments:
[1] = system: Varicella-Zoster Virus (VZV) clinical isolate DM625; assay: VZV plaque reduction assay; assay type: cell-based; conditions: Human alphaherpesvirus 3, 144 h, VZV in HFF; for EC50: minimum concentration required to inhibit plaque formation by 50%, read-out: MIC50
Description: The compounds of the invention were evaluated for selective activity against varicella zoster virus (VCV) utilizing a plaque reduction assay procedure. The challenge virus was a clinical isolate designated DM625, obtained from Dr. Richard Whitley of the University of Alabama Hospitals, Birmingham, Ala. The virus had been passaged and titrated in cultures of human foreskin fibroblasts (HFF).
(§1) For the plaque reduction assay, sixth to twelfth passage human foreskin fibroblasts were seeded in wells of 12-well tissue culture plates and incubated at 37° C. in a humidified atmosphere containing 2% CO2 in air. Subconfluent HFF were rinsed with MEM and exposed to 0.5 ml/well of a suspension of VZV diluted in MEM+2% FBS for 2 hours at 37° C. Following the virus adsorption period, the inocula were removed and the infected cell layers were rinsed with MEM. Triplicate VZV-infected cell culture wells were treated with 1.0 ml of each concentration of test compound (in MEM+2% FBS). Six untreated virus-infected cell cultures and triplicate untreated uninfected cell cultures were fed with 1.0 ml of MEM+2% FBS to serve as controls. Wells containing uninfected HFF were treated with each concentration of test compound to monitor the test compound cytotoxicity. The 12-well plates were incubated at 37° C. in the CO2 incubator. At 48 hours post-virus infection (p.i.), fluids in all plate wells were replaced with fresh test compound and/or culture medium.
Six days p.i., the VZV plaques were counted (unstained, low magnification).The effect of each concentration of test compound on plaque formation was determined by comparing the mean number of plaques in the replicate test compound-treated cultures with the mean plaque counts of the untreated virus control cultures.
The MIC50 value is the minimum concentration of test Compound required to inhibit plaque formation by 50%.

[2] = MTT test compound cytotoxicity in human foreskin fibroblasts; assay type: cell-based; conditions: hff cells, read-out: MTT assay (Percent of control)
Description: as §1
The test compound cytotoxicity control cultures were examined microscopically for gross morphologic changes, then treated with MTT and 30% SDS. The blue color of the MTT formazan was measured spectrophotometrically at 570 nm. Test compound cytotoxicity was determined by comparing the absorbance (O.D.) of each test compound control with the mean O.D. of the cell control cultures and expressed as percent of control.

HSV-1 (E-377) = assay: CPE inhibition assay (MTT), HSV-1 (E-377) in Vero cells; assay type: cell-based, herpes simplex virus type 1; conditions: Human alphaherpesvirus 1, inhibited CPE by 50%
Description: (§2) Vero cells were pregrown as monolayers in wells of COSTAR 96-well tissue culture plates using suitable cell culture media. Stock viruses were pretitered according to the method of Reed and Muench (Amer. J. Hyg. 27 493 (1938)) and diluted in cell culture medium to yield 32 CCID50 (cell culture infectious dose, 50%) units per 0.1 mL. Antiviral assays were designed to test six concentrations of each compound, from cytotoxic to noncytotoxic levels, in triplicate against each of the challenge viruses in microtiter plate wells containing cell monolayers. To each of the replicate cell cultures were added 0.1 mL of the test-compound solution and 0.1 mL of virus suspension. Two compounds were evaluated per plate. The following controls were included:
(§3) (1) Cell controls containing cells+medium;
(§4) (2) Untreated, virus-infected cell controls;
(§5) (3) Test-compound cytotoxicity controls containing uninfected, test-compound treated cells;
(§6) (4) Test-compound color controls-test-compound+medium (no cells); and
(§7) (5) Reagent (experiment medium) controls-medium only (no cells).
(§8) The covered plates were incubated at 37° C. in a humidified atmosphere containing 2% CO2. When cytopathogenic effect (CPE) in untreated virus control wells reached 100%, 20 μL of 3-(4,5-dimethyl-thiazol-2-yl)-2,5-diphenyl tetrazolium bromide (MTT) (dissolved in PBS at 5 mg/mL) was pipetted into each of the plate wells. The plates were incubated at 37° C. for six hours; then 40 μL of 30% SDS (in 0.02N HCl) was added to each well. After overnight incubation at 37° C., the blue color or the MTT formazan was measured spectrophotometrically at 570 nm. The optical density (OD) value of each culture is a function of the amount of formazan produced which is proportional to the number of viable cells. A computer program was utilized to calculate the percent (CPE) reciprocal of % CPE reduction) of the virus-infected wells and % cell viability of the uninfected test-compound control wells.
The IC50 value is the minimum test-compound concentration (μg/mL) that inhibited CPE by 50% calculated by using a regression analysis program for semilog curve fitting. The TC25 value is the minimum test-compound concentration (μg/mL) that reduced cell viability by 25%.

HSV-2 (MS) = assay: CPE inhibition assay (MTT), HSV-2 (MS) in Vero cells; assay type: cell-based, herpes simplex virus type 2; conditions: Human alphaherpesvirus 2, inhibited CPE by 50%
Description: as §2, §3, §4, §5, §6, §7
as §8, with “control wells. […]” for “control wells.”

Vero cells = assay: MTT cell viability of uninfected test-compound control Vero cells; assay type: cell-based, African green monkey; conditions: reduced cell viability by 25%, HSV-1 (E-377) line
Description: as §2, §5
The covered plates were incubated at 37° C. in a humidified atmosphere containing 2% CO2. When cytopathogenic effect (CPE) in untreated virus control wells reached 100%, 20 μL of 3-(4,5-dimethyl-thiazol-2-yl)-2,5-diphenyl tetrazolium bromide (MTT) (dissolved in PBS at 5 mg/mL) was pipetted into each of the plate wells. The plates were incubated at 37° C. for six hours; then 40 μL of 30% SDS (in 0.02N HCl) was added to each well. After overnight incubation at 37° C., the blue color or the MTT formazan was measured spectrophotometrically at 570 nm. […]

[3] = system: Herpes Simplex Virus Type 1; assay: Neutral red dye uptake assay for antiviral activity, HSV-1 in Vero cells; assay type: cell-based; conditions: Human alphaherpesvirus 1, HSV-1, Vero, concentration at which 50% CPE would be observed, read-out: MIC50
Description: (§9) Vero cell monolayers were harvested by trypsinization. The number of viable cells per ml. was determined by staining an aliquot with trypan blue and counting in a hemocytometer. Cell densities were adjusted in growth medium to contain 4×10^5 cells/mi. 96-well sterile tissue culture plates were seeded with 100 μl/well of the adjusted cell suspensions, i.e., 4×10^4 cells/well. Seeded plates were incubated overnight at 37° C. with CO2.
(§10) After overnight incubation, monolayers were approximately confluent. The growth medium was removed and the monolayers in each cell were infected with 100 μl of virus diluted in maintenance medium to produce approximately 90% cytopathogenic effect (CPE) after 2 to 3 days incubation. The virus was allowed to adsorb for 1 hour at 37° C. with 4 to 6% CO2. Controls for cell growth were overlayed with virus-free maintenance medium. The maintenance medium containing residual virus was removed.
(§11) The test compounds were dissolved and/or diluted in maintenance medium to the concentration desired for testing and were added to the wells of the plate. Aliquots (100 μl ) of each concentration were added to wells in replicate (duplicate or triplicate). Controls for virus activity were overlayed with drug-free maintenance medium. Replicate wells containing only maintenance medium served as controls for background absorbance levels.
After incubation, the medium was removed from all the wells. 100 μl of neutral red solution was added to each well and the plate was incubated at 37° C. without CO2 for 2 hours. After the 2 hour incubation, the excess neutral red solution was removed. […]
The neutral red stain taken up by the viable cells was extracted by adding 100 μl/well of acidified methanol, pH 1.0. […] The amount of neutral red stain extracted into the methanol was quantified by determining the absorbance at a wavelength of 540 nm.
The percent CPE in virus controls was determined by the following formula: [formula]
The percent CPE in cells infected with virus and treated with the test compound was determined by the following formula: [formula] […]

in vitro = assay type: cell-based, African green monkey; conditions: monkey, vero cells
Description: as §9, §10, §11
After incubation, the medium was removed from all the wells. 100 μl of neutral red solution was added to each well and the plate was incubated at 37° C. without CO2 for 2 hours. After the 2 hour incubation, the excess neutral red solution was removed. The plates were washed with 100 μl/well of PBS, pH 7.2 and then the PBS was removed.
The neutral red stain taken up by the viable cells was extracted by adding 100 μl/well of acidified methanol, pH 1.0. (The acidified methanol fixed the cells to the well). The plate was allowed to stand at room temperature for at least 15 minutes to allow for maximum extraction. The amount of neutral red stain extracted into the methanol was quantified by determining the absorbance at a wavelength of 540 nm. […]

Compound	inhibition at 0.032 µM [1] [%]	inhibition at 0.1 µM [1] [%]	inhibition at 0.32 µM [1] [%]	inhibition at 1 µM [1] [%]	inhibition at 3.2 µM [1] [%]	inhibition at 10 µM [1] [%]	inhibition at 32 µM [1] [%]	inhibition at 100 µM [1] [%]	inhibition at 320 µM [1] [%]	inhibition at 1000 µM [1] [%]	EC50 [1] [µg/mL]	viability at 1 µM [2] [%]	viability at 3.2 µM [2] [%]	viability at 10 µM [2] [%]	viability at 32 µM [2] [%]	viability at 100 µM [2] [%]	viability at 320 µM [2] [%]	viability at 1000 µM [2] [%]	IC50 (HSV-1 (E-377)) [µg/mL]	IC50 (HSV-2 (MS)) [µg/mL]	also measured
O=c1[nH]c(=O)n([C@@H]2O[C@H](CO)[C@H]2CO)cc1I [Example 42, 1-([2'R, 3'R, 4'S]-3',4'-Bis(hydroxymethyl)-2'-oxetanyl)-5-iodouracil]	7	2	54	76	98	99	100	100	99.6	100	0.1 (≈ 0.282 µM)	93	94	80	88	82	79	68	0.05 (≈ 0.141 µM)	35.3 (≈ 99.7 µM)	–
O=c1[nH]c(=O)n([C@@H]2O[C@H](CO)[C@H]2CO)cc1Br [Example 43, 1-([2'R, 3'R, 4'S]-3',4'-Bis(hydroxymethyl)-2'-oxetanyl)-5-bromouracil]	1	12	41	75	98	99	99	100	100	100	0.17 (≈ 0.554 µM)	100	93	99	93	100	88	82	0.7 (≈ 2.28 µM)	141 (≈ 459 µM)	viability at 0.032 µM ([2]; 0.032 μM): 100%; viability at 0.1 µM [2]: 100%; viability at 0.32 µM [2]: 96%
O=c1[nH]c(=O)n([C@@H]2O[C@H](CO)[C@H]2CO)cc1C=CI [Example 49, 1([2'R, 3'R, 4'S]-3',4'-Bis(hydroxymethyl)-2'-oxetanyl)-5-(2-iodo-1-vinyl)uracil]	97	98	98	99	–	–	–	–	–	–	0.01 (≈ 0.0263 µM)	100	–	–	–	–	–	–	0.67 (≈ 1.76 µM)	–	inhibition at 0.0032 µM ([1]; 0.0032 μM): 18%; inhibition at 0.01 µM ([1]; 0.01 μM): 49%; viability at 0.1 µM [2]: 100%; viability at 0.32 µM [2]: 100%; TC25 (Vero cells): > 380 µg/mL
C=Cc1cn([C@@H]2O[C@H](CO)[C@H]2CO)c(=O)[nH]c1=O [Example 61, 1-([2'R, 3'R, 4'S]-3',4'-Bis(hydroxymethyl)-2'-oxetanyl)-5-vinyluracil]	–	–	–	–	–	–	–	–	–	–	–	–	–	–	–	–	–	–	–	6.3 (≈ 24.8 µM)	EC50 [3]: 0.02 µg/mL (≈ 0.0787 µM); CC50 (in vitro): > 1000 µg/mL
